The text below walks through data of ChEMBL document CHEMBL3286220, “2,4-Bis(4-hydroxybenzyl)phenol inhibits heat shock transcription factor 1 and sensitizes lung cancer cells to conventional anticancer modalities” (J Nat Prod, 2014).

The target of assay [1] is T1, Heat shock factor protein 1 (Homo sapiens) (UniProt Q00613).
T1 sequence (whole entry): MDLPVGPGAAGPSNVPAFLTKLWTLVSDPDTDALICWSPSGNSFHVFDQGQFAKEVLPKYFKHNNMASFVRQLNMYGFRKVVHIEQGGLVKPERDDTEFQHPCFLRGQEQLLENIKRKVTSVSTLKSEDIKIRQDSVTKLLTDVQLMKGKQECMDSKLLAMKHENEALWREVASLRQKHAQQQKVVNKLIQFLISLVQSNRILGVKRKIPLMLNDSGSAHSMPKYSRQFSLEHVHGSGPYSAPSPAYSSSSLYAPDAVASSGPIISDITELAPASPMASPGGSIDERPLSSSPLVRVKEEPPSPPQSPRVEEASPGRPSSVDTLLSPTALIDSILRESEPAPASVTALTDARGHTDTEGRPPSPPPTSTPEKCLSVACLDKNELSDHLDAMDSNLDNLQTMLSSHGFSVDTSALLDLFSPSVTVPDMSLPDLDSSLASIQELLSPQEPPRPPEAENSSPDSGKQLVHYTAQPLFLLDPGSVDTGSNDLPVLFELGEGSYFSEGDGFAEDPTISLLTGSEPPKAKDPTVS
Put plainly: Reduction of HSP1 stability in human NCI-H460 cells assessed as protein degradation at 10 ug/mL up to 9 hrs by Western blot analysis. It counts as cell-based. Background: Immunoblotting shows a protein as a band on a membrane.

Assay [2] deals with T1, Heat shock factor protein 1 (Homo sapiens). The experiment in a line: Inhibition of HSP1 activity in human NCI-H460 cells assessed as reduction of HSP70 mRNA expression at 20 uM up to 24 hrs by qRT-PCR analysis. In kind it is cell-based.
Assay [3] has the same target. The experiment in a line: Inhibition of HSP1 activity in human NCI-H460 cells assessed as reduction of HSP25 protein expression after 12 hrs by Western blot analysis. It counts as cell-based.
Assay [4] has the same target. Put plainly: Inhibition of HSP1 activity in human NCI-H460 cells assessed as reduction of hsp25 promoter activity after 12 hrs by luciferase reporter gene assay. It counts as cell-based.
For assay [5] the target is unchanged. The experiment in a line: Inhibition of HSP1 activity in human NCI-H460 cells assessed as reduction of HSP1 protein expression after 12 hrs by Western blot analysis. It counts as cell-based.
Assay [6] concerns NCI-H460. The experiment in a line: Induction of apoptosis in human NCI-H460 cells assessed as cyclin D and cyclin E level after 12 hrs. In kind it is functional, cell-based.
Assay [7] addresses T1, Heat shock factor protein 1 (Homo sapiens). Put plainly: Inhibition of HSP1 activity in human NCI-H460 cells assessed as reduction of HSP70 mRNA expression at 1 to 20 uM after 12 hrs by qRT-PCR analysis. In kind it is cell-based. A general note: In qPCR the cycle at which signal appears reflects the starting amount.
Assay [8] has the same target. The experiment in a line: Induction of HSP1 dephosphorylation at S230, S303/307, and S326 in human NCI-H460 cells after 24 hrs by Western blot analysis. It counts as cell-based.
The test system of assay [9] is NCI-H460. Put plainly: Induction of apoptosis in human NCI-H460 cells assessed as cleaved PARP and caspase 3 level at 20 uM. The note with it: TDE = time-dependent effect. In kind it is functional, cell-based.
In assay [10] the target is T2, Heat shock factor protein 1 (Mus musculus) (UniProt P38532).
T2 sequence (whole entry): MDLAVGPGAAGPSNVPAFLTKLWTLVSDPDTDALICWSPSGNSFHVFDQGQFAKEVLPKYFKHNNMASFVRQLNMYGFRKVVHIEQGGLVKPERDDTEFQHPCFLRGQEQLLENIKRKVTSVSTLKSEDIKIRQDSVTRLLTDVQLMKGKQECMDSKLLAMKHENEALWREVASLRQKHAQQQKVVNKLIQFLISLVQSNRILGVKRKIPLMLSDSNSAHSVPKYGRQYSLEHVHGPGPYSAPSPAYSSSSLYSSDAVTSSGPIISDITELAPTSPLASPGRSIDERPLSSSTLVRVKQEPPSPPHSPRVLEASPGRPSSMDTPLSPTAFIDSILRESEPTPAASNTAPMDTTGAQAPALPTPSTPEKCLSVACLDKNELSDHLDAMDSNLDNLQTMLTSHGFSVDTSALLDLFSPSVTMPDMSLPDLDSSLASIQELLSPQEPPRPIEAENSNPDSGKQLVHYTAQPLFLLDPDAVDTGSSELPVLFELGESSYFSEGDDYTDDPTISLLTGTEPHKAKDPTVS
The experiment in a line: Inhibition of HSP1 activity in mouse MEF assessed as reduction of hsp25 promoter activity at 5 to 100 uM after 12 hrs by luciferase reporter gene assay. For orientation: A reporter such as luciferase makes a cellular process visible.

For assay [11], the target named is T1, Heat shock factor protein 1 (Homo sapiens). Put plainly: Inhibition of HSP1 activity in human NCI-H460 cells assessed as reduction of hsp70 promoter activity after 12 hrs by luciferase reporter gene assay. In kind it is cell-based.
The target is the same in assay [12]. The experiment in a line: Inhibition of HSP1 activity in human NCI-H460 cells assessed as reduction of HSP27 mRNA expression at 1 to 20 uM after 12 hrs by qRT-PCR analysis. In kind it is cell-based.
Assay [13] has the same target. Put plainly: Inhibition of HSP1 activity in human NCI-H460 cells assessed as reduction of HSP27 mRNA expression at 20 uM up to 24 hrs by qRT-PCR analysis. In kind it is cell-based.
Assay [14] deals with NCI-H460. Put plainly: Induction of apoptosis in human NCI-H460 cells assessed as cleaved PARP and caspase 3 level after 12 hrs. In kind it is functional, cell-based.
For assay [15], the target named is T1, Heat shock factor protein 1 (Homo sapiens). Put plainly: Inhibition of HSP1 activity in human NCI-H460 cells assessed as reduction of HSP25 protein expression at 20 uM by Western blot analysis. In kind it is cell-based. The settings on record: TDE = time-dependent effect.
Assay [16] has as its target T2, Heat shock factor protein 1 (Mus musculus). The experiment in a line: Inhibition of HSP1 activity in mouse MEF assessed as reduction of hsp70 promoter activity at 5 to 100 uM after 12 hrs by luciferase reporter gene assay.
For assay [17], the system named is NCI-H460. Put plainly: Cytotoxicity against human NCI-H460 cells expressing siHSF1 up to 100 uM after 24 hrs by MTT assay. In kind it is functional, cell-based.
Assay [18] deals with T1, Heat shock factor protein 1 (Homo sapiens). Put plainly: Inhibition of HSP1 activity in human NCI-H460 cells assessed as reduction of HSP1 mRNA expression at 1 to 20 uM after 12 hrs by qRT-PCR analysis. It counts as cell-based.
The subject of assay [19] is NCI-H460. The experiment in a line: Cytotoxicity against human NCI-H460 cells up to 100 uM after 24 hrs by MTT assay. It counts as functional, cell-based.
In assay [20] the test system is T3, Heat shock factor protein 1 (Homo sapiens), Q00613 [S326A].
T3 sequence (whole entry): T1 sequence (whole entry) with S326A
Put plainly: Reduction of HSP1 dephosphorylated at S326A mutant stability in human NCI-H460 cells up to 7.5 hrs by Western blot analysis in presence of cyclohexamide. In kind it is cell-based.

In assay [21] the test system is T4, Heat shock factor protein 1 (Homo sapiens), Q00613 [S326E].
T4 sequence (whole entry): T1 sequence (whole entry) with S326E
Put plainly: Reduction of HSP1 phosphorylated at S326E mutant stability in human NCI-H460 cells up to 7.5 hrs by Western blot analysis in presence of cyclohexamide. It counts as cell-based.

Assay [22] deals with NCI-H460. Put plainly: Induction of apoptosis in human NCI-H460 cells assessed as cyclin D and cyclin E level at 20 uM. In kind it is functional, cell-based. The note with it: TDE = time-dependent effect.
Assay [23] deals with T1, Heat shock factor protein 1 (Homo sapiens). The experiment in a line: Reduction of HSP1 stability in human NCI-H460 cells assessed as protein degradation at 10 uM up to 9 hrs by Western blot analysis in presence of cyclohexamide. In kind it is cell-based.
The test system of assay [24] is NCI-H460. Put plainly: Cytotoxicity against HSF1 deficient human NCI-H460 cells up to 100 uM after 24 hrs by MTT assay. In kind it is functional, cell-based.
Assay [25] addresses T1, Heat shock factor protein 1 (Homo sapiens). Put plainly: Inhibition of HSP1 activity in human NCI-H460 cells assessed as reduction of HSP70 protein expression at 20 uM by Western blot analysis. In kind it is cell-based. The settings on record: TDE = time-dependent effect.
The target is the same in assay [26]. Put plainly: Inhibition of HSP1 activity in human NCI-H460 cells assessed as reduction of HSP1 mRNA expression at 20 uM up to 24 hrs by qRT-PCR analysis. It counts as cell-based.
The subject of assay [27] is NCI-H460. Put plainly: Induction of apoptosis in human NCI-H460 cells expressing siHSF1 assessed as cleaved PARP and caspase 3 level up to 20 uM after 12 hrs. In kind it is functional, cell-based.
In assay [28] the target is T1, Heat shock factor protein 1 (Homo sapiens). Put plainly: Inhibition of HSP1 activity in human NCI-H460 cells assessed as reduction of HSP1 protein expression at 20 uM by Western blot analysis. In kind it is cell-based. The settings on record: TDE = time-dependent effect.
For assay [29] the target is unchanged. Put plainly: Inhibition of HSP1 activity in human NCI-H460 cells assessed as reduction of HSP70 protein expression after 12 hrs by Western blot analysis. It counts as cell-based.

Numbering of substitutions follows the chain as printed. The source made the active and inactive calls. No cut-off for these calls is given here.

As for `C[C@@H]1C[C@@H]([C@H](O)CC2CC(=O)NC(=O)C2)C(=O)[C@@H](C)C1`, the outcome in assay [1] was Active.
Take `Oc1ccc(Cc2ccc(O)c(Cc3ccc(O)cc3)c2)cc1`: the inhibition entry in assay [2], in assay [7], in assay [12] and in assay [13] was “Active” throughout. Further, the inhibition result is “Dose-dependent effect” in [3]; “Dose-dependent effect” in assay [4]; “Dose-dependent effect” in [5]; “Dose-dependent effect” in assay [11]; “tde” in assay [15]; “tde” in assay [25]. Also, the inhibition entry was “tde” in assay [28] and “Dose-dependent effect” in assay [29]. The Activity entry was “Dose-dependent effect” in the assay on NCI-H460 [6]; “Dose-dependent effect” in assay [8]; “tde” in the assay on NCI-H460 [9]; “Dose-dependent effect” in the assay with NCI-H460 [14]; “tde” in the assay on NCI-H460 [22]. In addition, the inhibition entry in assay [10], in assay [16], in [18] and in assay [26] was “inactive” each time. In addition, in the assay on NCI-H460 [17], the result was inactive. For the same compound, the outcome (in the assay on NCI-H460 [19]; in [20]; in assay [21]; in assay [23]; in the assay on NCI-H460 [24]; in the assay on NCI-H460 [27]) was Active.
